The structures appear in SMILES notation.

What is called Ki is a measure of affinity in units of concentration, obtained from inhibition or displacement. A low value points to tighter binding. As usually defined, the GI50 is the concentration at which growth is held to half of that of the control. High values mean less potent growth inhibition, low ones more potent growth inhibition.

Chain of Bcl-2-like protein 1 (Q07817 whole entry): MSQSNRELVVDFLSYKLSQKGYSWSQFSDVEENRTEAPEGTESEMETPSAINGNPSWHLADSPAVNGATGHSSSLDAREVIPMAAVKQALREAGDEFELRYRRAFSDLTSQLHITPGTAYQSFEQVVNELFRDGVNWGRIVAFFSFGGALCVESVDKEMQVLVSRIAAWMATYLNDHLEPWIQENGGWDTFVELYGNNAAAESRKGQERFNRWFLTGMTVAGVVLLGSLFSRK

The first assay addresses Bcl-2-like protein 1 (Homo sapiens, UniProt Q07817). Briefly: Binding affinity to Bcl-xL after 2 hrs by fluorescein-labeled Bak-BH3 peptide competition binding assay.
Details: not given
In the case of `Oc1cccc(CN2CCN(c3ncc(Cc4ccccc4)cn3)CC2)c1`, the Ki stood at 0.52 µM. That is a sub-micromolar value.
Compound `Nc1ccc(Cl)c(CN2CCN(c3ncc(Cc4ccccc4)cn3)CC2)c1` came in with a Ki of 0.17 µM.
`c1ccc(Cc2cnc(N3CCN(Cc4ccccc4-c4cn[nH]c4)CC3)nc2)cc1` yielded a Ki of 0.127 µM. This Ki and that of the compound before are within 1.5-fold of each other.

The next assay relates to A549. Briefly: Growth inhibition of human A549 cells after 24 hrs by SRB assay. In kind it is functional. The following applies: A549, 24 h. (The SRB assay estimates cell density from bound dye.)
For `Oc1cccc(CN2CCN(c3ncc(Cc4ccccc4)cn3)CC2)c1`, it took 51.1 µM to inhibit growth by half (GI50). That is a double-digit micromolar value.
Same read-out and setting: next, `CCc1cnc(N2CCN(Cc3cc(F)ccc3Br)CC2)nc1`: over 100 µM.
With `Brc1ccccc1CN1CCN(c2ncc(Cc3ccccc3)cn2)CC1`, the GI50 stood at 86.5 µM. This lies in the double-digit micromolar range.
`CCc1cnc(N2CCN(Cc3ccccc3Br)CC2)nc1` had a GI50 of 70.9 µM.
Compound `Nc1ccc(Cl)c(CN2CCN(c3ncc(Cc4ccccc4)cn3)CC2)c1` showed a GI50 of 15.1 µM.
`CCc1cnc(N2CCN(Cc3cccc(O)c3)CC2)nc1` gave a GI50 of over 100 µM.
Compound `CCc1cnc(N2CCN(Cc3ccccc3-c3cn[nH]c3)CC2)nc1` showed a GI50 of 51.4 µM.
`Fc1ccc(-c2cn[nH]c2)c(CN2CCN(c3ncc(Cc4ccccc4)cn3)CC2)c1` came in with a GI50 of 9.91 µM.
The same measure, in the same setting: as for `CCc1cnc(N2CCN(Cc3cccc(N)c3)CC2)nc1`, the figure is over 100 µM; as for `Nc1cccc(CN2CCN(c3ncc(Cc4ccccc4)cn3)CC2)c1`, 75.4 µM.
The same measure, in the same setting: next, `CCc1cnc(N2CCN(Cc3cc(O)ccc3Br)CC2)nc1`: 57.6 µM.
In turn, `CCc1cnc(N2CCN(Cc3cc(N)ccc3Cl)CC2)nc1` registered a GI50 of 62.9 µM.
The compound `O=[N+]([O-])c1ccc(Cl)c(CN2CCN(c3ncc(Cc4ccccc4)cn3)CC2)c1` gave a GI50 of over 100 µM.
The compound `O=[N+]([O-])c1cccc(CN2CCN(c3ncc(Cc4ccccc4)cn3)CC2)c1` gave a GI50 of 61.2 µM.
As to `CCc1cnc(N2CCN(Cc3ccccc3)CC2)nc1`, the GI50 is over 100 µM.
As to `c1ccc(Cc2cnc(N3CCN(Cc4ccccc4)CC3)nc2)cc1`, halving of growth (GI50) required 49.6 µM.
For `Oc1ccc(Br)c(CN2CCN(c3ncc(Cc4ccccc4)cn3)CC2)c1`, it took 23.7 µM to inhibit growth by half (GI50).
On the same count and under the same terms, as for `Fc1ccc(Br)c(CN2CCN(c3ncc(Cc4ccccc4)cn3)CC2)c1`, the figure is over 100 µM; as for `CCc1cnc(N2CCN(Cc3cc(F)ccc3-c3cn[nH]c3)CC2)nc1`, 49.2 µM; as for `c1ccc(Cc2cnc(N3CCN(Cc4ccccc4-c4cn[nH]c4)CC3)nc2)cc1`, 8.43 µM.
Compound `CCc1cnc(N2CCN(Cc3cccc([N+](=O)[O-])c3)CC2)nc1` yielded a GI50 of 88 µM.
`CCc1cnc(N2CCN(Cc3cc([N+](=O)[O-])ccc3Cl)CC2)nc1`: the GI50 was found to be 67.2 µM.

For the origin of these results see ChEMBL document CHEMBL1681673, “Anti-tumor pyrimidinylpiperazines bind to the prosurvival Bcl-2 protein family member Bcl-XL” (Bioorg Med Chem Lett, 2011).
